Test results from patent US20250325516A1, “SEROTONIN ANALOGUES FOR USE IN TREATING METALLOPTOSIS-ASSOCIATED DISORDERS” (INSTITUT CURIE, priority 2022, published 2025).
Where a name gives a salt, the structure may show the parent alone.

Key:
BELA cells = test: RhoNox-M (lysosomal Fe2+ probe) flow cytometry; assay type: cell-based; conditions: 10 μM, 24 h
Experimental: All cells were grown in an incubator equilibrated at 37° C. with 5% CO2, grown to confluence and split with Trypsin/EDTA (Gibco, TRYPGIB01) once or twice a week according to confluence. HMLER cells ([…]) naturally repressing E-cadherin, obtained from human mammary epithelial cells infected with a retrovirus carrying hTERT, SV40 and the oncogenic allele H-rasV12, and HMLER CD44 and TFRC ko clones were cultured in DMEM/F12 (Thermo Fisher Scientific, 31331093) supplemented with 10% FBS (v/v) (Thermo Fisher Scientific, 10270106), 10 μg/mL insulin (Sigma-Aldrich, 10516), 0.5 μg/mL hydrocortisone (Sigma-Aldrich, H0888) and 0.5 μg/ml puromycin (Life Technologies, A11138-02), unless stated otherwise. PDAC053 T cells were grown in serum-free ductal medium: DMEM/F12 supplemented with 0.61 g/500 mL nicotinamide (Sigma-Aldrich, 3376), 2.50 g/500 mL glucose (Sigma-Aldrich, G6152), 1:200 ITS+ (Corning, 354352), 1:20 Nu-serum IV (Corning, 355104), 100 ng/ml cholera toxin, 1 μM dexamethasone (Sigma-Aldrich, D4902), 50 nM 3,3′,5-triiodo-L-thyronine (Sigma-Aldrich, T6397) and 1× PenStrep. BELA cells were cultured using published procedures (Nat. Comm. doi: 10.1038/ncomms14750).
Bodipy-C11 (Thermo Fisher Scientific, D3861) were used according to the manufacturer's protocol. RhoNox-M (in-house) was added to live cells prior to flow cytometry analysis for 1 h at a concentration of 1 μM. For the Annexin/PI assay (Thermo Fisher Scientific, V13245, manufacturer's protocol) BELA cells were treated with RSL3 in the presence or absence of 1 μM Liproxstatin-1 (Sigma-Aldrich, SML1414) or 10 μM A3 for 24 h. Cells were then washed twice with ice-cold 1×PBS and suspended in incubation buffer prior to being analyzed by flow cytometry. The manufacturer's protocol was followed. For each condition, at least 10,000 cells were counted. Data were recorded on an Attune (Thermo Fisher Scientific) and processed using FlowJo (FLOWJO, LLC).

PDAC cells [1] = test: Click-labelling fluorescence microscopy with LysoTracker and organelle antibodies, PDAC cells (FIG. 9); assay type: cell-based; conditions: 10 μM, 3 h
Experimental: Pancreatic Ductal Adenocarcinoma (PDAC) cells were grown at 37° C. and 5% CO2 using medium prepared based on previously described (https://doi.org/10.1053/j.gastro.2004.03.058). Cells were plated on cover slips 24 h prior to the experiment. The cells were treated with 10 µM of compounds for 3 h and LysoTracker Deep Red (ThermoFisher Scientific L12492, 1:10000) according to the manufacturer's protocol. Subsequently, cells were washed three times with 1×PBS and fixed with 2% paraformaldehyde (w/v) in 1×PBS for 12 min, and then washed three times with 1×PBS. After fixation, cells were permeabilized with 0.1% Triton X-100 (v/v) in 1×PBS for 5 min and washed three times with 1×PBS. Then, cells were blocked in 2% BSA, 0.2% Tween-20 (w/v)/1×PBS (blocking buffer) for 20 min at RT. The click reaction cocktail was prepared from Click-iT EdU Imaging Kits (ThermoFisher Scientific, C10337) according to the manufacturer's protocol. Briefly, 868 μL of 1× Click-iT reaction buffer was mixed with 40 μl CuSO4 solution, 2 μL Alexa Fluor azide and 90 μl reaction buffer additive (sodium ascorbate) to reach a final volume of 1 mL. Cover slips were incubated with 50 μl of the click reaction cocktail in the dark at RT for 30 minutes, then washed three times with 1×PBS. Further, cells were incubated with the relevant antibody in blocking buffer for 1 h at room temperature and washed three times with blocking buffer. Then, cells were incubated with secondary antibodies for 1 h. Finally, cover slips were washed three times with 1×PBS and mounted using VECTASHIELD (Vector Laboratories) containing DAPI and were sealed with nail varnish Express manucure (Maybelline, 16P201). Fluorescence images were acquired using a Deltavision real-time microscope (Applied Precision). 100×/1.4NA objectives were used for 2D and 3D acquisitions that were deconvoluted with SoftWorx (Ratio conservative-10 iterations, Applied Precision) and processed with ImageJ.

PDAC cells [2] = test: Anti-ferroptotic activity: BODIPY-C11 flow cytometry, PDAC cells co-treated with RSL3 (FIG. 8); assay type: cell-based; conditions: RSL3 200 nM, compounds 10 μM
Experimental: Pancreatic Ductal Adenocarcinoma (PDAC) cells were grown at 37° C. and 5% CO2 using medium prepared based on previously described (https://doi.org/10.1053/j.gastro.2004.03.058).
PDAC cells were seeded on 6 well plates at the density of 2×10^5 cells/well. RSL3 (200 nM) was added along with compounds (10 μM for screening) on the following day and after 23 hr, BODIPY (4 μM) was added for 1 hr. The media was removed and the cells were washed with PBS twice before typsinization. The cells were harvested, pelleted, washed with PBS and finally PBS buffer containing 10% FBS and EDTA, was added for flow cytometry. The results are shown in FIG. 8 and this enabled us to establish a robust structure activity relationship on the serotonin scaffold.

[3] = reference in cyclic voltammetry; cited from earlier work
[4] = Colorimetric assessment of metal complex formation in aqueous solution; assay type: binding
Experimental: […] assessment of complex formation: To an aqueous solution of serotonin hydrochloride (3 equiv., C=0.1 M) or A3 formic salt (3 equiv., C=0.1 M) iron (III) chloride (1 equiv.) or copper (II) sulfate (C=0.1 M) was added. A color change characterized the formation of metal complexes.

[5] = Cyclic voltammetry of FeCl3 after addition of compounds (FIG. 10b); assay type: binding; conditions: 1 mM FeCl3 in 0.3 M nBu4NBF4 in MeCN, scan rate 2 V/s
Experimental: Cyclic voltammetry experiments were performed with a three-electrode cell under argon. Saturated Calomel Electrode (SCE) was used as reference, a steady Glassy Carbon (GC) electrode of diameter 3 mm was selected as working electrode and a Platinum wire as counter-electrode. All cyclic voltammograms were recorded at RT with a μ-autolab III from Metrohm using Nova software with a scan rate of 2 V/s. MeCN was used as a degassed HPLC grade from Carlo Erba. Water was mQ H2O. Stock solution of FeCl3 (100 mM) and Lip-1, A3, A0 and DFO (20 mM) were prepared with 0.3 M nBu4NBF4 in MeCN. 1 mM FeCl3 in 0.3 M nBu4NBF4 in MeCN (1 mL) was used as working solution for recording and subsequently equivalents of compounds were added, stirred and recorded.

Row | SMILES | RhoNox-M fluorescence (lysosomal Fe(II)) (BELA cells) | localization in lysosomes (PDAC cells [1]) | anti-ferroptotic activity (active / inactive compound) (PDAC cells [2]) | also measured
1 | Oc1ccc2[nH]cc(CCNC3CCCCC3)c2c1 [LC336] | increase of RhoNox-M fluorescence | – | – | –
2 | C#CCOc1ccc2[nH]cc(CCN(CC#C)CC#C)c2c1 [Compound A1] | – | localized in lysosomes | Active | –
3 | CC(=O)N(O)CCCCCNC(=O)CCC(=O)N(O)CCCCCNC(=O)CCC(=O)N(O)CCCCCN [DFO] | – | – | – | Fe^3+ chelation, known property of the reference [3]: known Fe^3+ chelator
4 | CCCCNCCc1c[nH]c2ccc(O)cc12 [LT265B] | increase of RhoNox-M fluorescence | – | – | –
5 | CC(CCCCCCC(C)NCCc1c[nH]c2ccc(O)cc12)NCCc1c[nH]c2ccc(O)cc12 (centres unmarked) [LC357] | increase of RhoNox-M fluorescence | – | – | –
6 | NCCc1c[nH]c2ccc(O)cc12 [Serotonin, serotonin hydrochloride] | – | – | – | colour of solution in the presence of FeCl3 and CuSO4, indicative of complex formation ([4]; aqueous solution, 3 equiv. compound, C=0.1 M): form differently colored solutions; complex formation with Fe(II), Fe(III) and Cu(II) ([4]; colorimetric complexation studies in solution (FIG. 1) and NMR spectroscopy (FIG. 2)): form readily complexes
7 | C#CCN(CC#C)CCc1c[nH]c2ccc(O)cc12 [Compound A4] | – | localized in lysosomes | Active | –
8 | CCCCCCCCCCNCCc1c[nH]c2ccc(O)cc12 [LT262A] | increase of RhoNox-M fluorescence | – | – | –
9 | C#CCOc1ccc2c(c1)c(CCN(CC#C)CC#C)cn2CC#C [Compound A0] | – | doesn't go to lysosomes | inactive | binding / chelation of Fe^3+ (cyclic voltammetry) [5]: doesn't binds to Fe^3+
